These are literature values, as cited in PubChem BioAssay AID1259409 (Chemical Carcinogenesis Research Information System (CCRIS), 2018).

Structures are written as SMILES.

The data set concerns rodent chemically induced tumor inhibition, incidence and multiplicity. Put plainly: CCRIS tumor inhibitor studies. The note with it: Carcinogen: 1,2-DIMETHYLHYDRAZINE, 540-73-8, Dose [Inhibitor]: 0, Route [Inhibitor]: GAVAGE, Species: MOUSE, Strain/Sex: ICR/FEMALE, Target Tissue: Type of Lesion: COLON: TUMOR, Dose [Carcinogen]: 20 MG/KG 1/WK FOR 20 WK, Promoter: NONE USED.

In the case of `CC1(S(=O)(=O)O)CC(=O)c2ccccc2C1=O` (centres undefined), the “tumour outcome (control, treated, inhibition, significance)” value (20 MG/KG 3/WK FOR 24 WK BEGINNING FIRST WK OF CARCINOGEN TREATMENT (STUDY DURATION: 28 WK)) was 9/13 (69%), 4/13 (31%), 55%, p<0.05; the “tumour outcome (control, treated, inhibition, significance)” value (20 MG/KG 3/WK FOR 28 WK BEGINNING FIRST WK OF CARCINOGEN TREATMENT (STUDY DURATION: 28 WK)) is given as 13/13 (100%), 8/13 (62%), 38%, p<0.05; the “tumour outcome (control, treated, inhibition, significance)” value (40 MG/KG 3/WK FOR 24 WK BEGINNING FIRST WK OF CARCINOGEN TREATMENT (STUDY DURATION: 28 WK)) is given as 9/13 (69%), 4/13 (31%), 55%, p<0.05; the “tumour outcome (control, treated, inhibition, significance)” value (40 MG/KG 3/WK FOR 28 WK BEGINNING FIRST WK OF CARCINOGEN TREATMENT (STUDY DURATION: 28 WK)) is 13/13 (100%), 8/13 (62%), 38%, p<0.05.
